This assay has as its target T1, estrogen receptor α ligand binding domain (ER-LBD) (Homo sapiens, UniProt P03372).
T1 construct: gene ESR1
T1 sequence (P03372 311-547 limits assumed): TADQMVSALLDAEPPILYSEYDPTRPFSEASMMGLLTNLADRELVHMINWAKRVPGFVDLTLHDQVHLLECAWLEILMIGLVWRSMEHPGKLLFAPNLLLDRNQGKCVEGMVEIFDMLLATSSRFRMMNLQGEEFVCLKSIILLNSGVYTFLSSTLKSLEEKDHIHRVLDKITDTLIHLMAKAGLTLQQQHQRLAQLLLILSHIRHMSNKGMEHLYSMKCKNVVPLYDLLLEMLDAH
In words: competitive fluorescence polarization, displacement of coumestrol from purified ER-LBD. (Polarisation of emitted light reports the rotation of a fluorescent probe.)

Results on 2 molecules are retold here after article PMC6387142, “Multi-Residue Method for the Analysis of Stilbene Estrogens in Milk” (International Journal of Molecular Sciences, 2019).

One may read the IC50 as the point on the concentration scale where inhibition reaches its midpoint. A lower IC50 goes with inhibition by little substance.

As for `C/C=C(/C(=C/C)c1ccc(O)cc1)c1ccc(O)cc1` [dienestrol], the IC50 came out at 12.9 nM. For `CC[C@H](c1ccc(O)cc1)[C@@H](CC)c1ccc(O)cc1` [hexestrol] the value was 9.27 nM.
